Experimental data taken from patent US12343319B2, “Compositions and methods for treatment of diseases and disorders” (Atai Therapeutics Inc., priority 2023, dated 2025).
“Also recorded” adds a separate entry of the source.

What was measured:
Type in all cases: in vivo, rat
male Sprague Dawley rats = assay: Psilocybin operant drug discrimination in rats
Description: Thirty-six (36) male Sprague Dawley rats served as subjects. Rats had been trained to lever press for food in standard operant conditioning chambers controlled by Med-PC software (Med. Associates Inc., St. Albans, VT) followed by training to associate the right lever to a psilocybin stimulus (0.5 mg/kg, SC), and the left lever to a neutral stimulus (saline, SC). The sequence of psilocybin and saline injections were administered under a randomized design where neither condition was administered for more than 3 consecutive days. […] The rats continued to receive a daily food ration (˜18 g at day end) with ad libitum access to water in their home cages.
Test sessions continued until 50 pellets had been obtained or 30 min had elapsed. During these sessions, response rate was also measured. Three types of tests were conducted: • 1. Dose-response profile for compound 2-2 to generalize to the psilocybin cue. On test days, rats received a single compound 2-2 dose (1, 3, or 10 mg/kg, IP) 10 min prior to test. The distribution of vehicle vs. drug-paired lever presses was recorded as well as the rate of lever response. • 2. Effect of the 5-HT subtype selective antagonists, M100907 (5-HT2A receptor selective; Kehne et al, 1996) and SB242084 (5-HT2C receptor selective, Kennett et al, 1997) against the generalization of compound 2-2. On test days, the rats received a single dose (0.5 mg/kg IP) of either antagonist 30 min before compound 2-2 (10 mg/kg, IP), which was administered 10 min prior to testing. The distribution of vehicle vs. drug-paired lever presses was recorded as well as the rate of lever response. • 3. Time-course profile for compound 2-2 (10 mg/kg IP) to generalize to the psilocybin cue. On test days, the rats received a single compound 2-2 dose (10 mg/kg, IP) at various pretreatment times (i.e., 10 min, 30 min, 1 h, 2 h, 4 h, 8 h) prior to test. The distribution of vehicle vs. drug-paired lever presses was recorded as well as the rate of lever response.
Drug testing was conducted on a Tuesday and Friday with the animals run on either vehicle or training drug (psilocybin 0.5 mg/kg, SC) on intervening weekdays. Group sizes varied among doses and pretreatment times and tended to be higher under situations where the choice response was more variable. This adjustment was made in an attempt to get as reliable a measure of drug vs. vehicle discrimination as possible at that specific dose or pretreatment time.

Male WKY rats = assay: Confirmatory 30 mg/kg sleep, locomotor, body temperature and qEEG study in WKY rats; conditions: 30 mg/kg IP
Description: The aim of the current study was to confirm the effects of compound 2-2 (30 mg/kg) on sleep-wake behavior and EEG brain oscillatory power in an independent cohort of male Wistar Kyoto rats. The study was carried out similarly to Examples 7 and 9 with differences noted below. Male WKY rats (n=8, 323-352 g at the start of dosing) were housed in groups of 2-3 animals per cage with standard housing conditions.

Male Sprague-Dawley rats = assay: 5-HT2A/2C/1A-mediated behaviors, locomotor activity and body temperature in rats
Description: Forty (40) male Sprague-Dawley rats were used as test subjects in this study. Animals were dosed with vehicle (IP), one of 3 doses of compound 2-2 (3 mg/kg, 10 mg/kg, 30 mg/kg IP) or psilocybin (1 mg/kg SC) and, following the appropriate pre-treatment time, were placed in locomotor activity boxes and continuously monitored for a 1 hr period with data collected into 10-minute time bins. Animals were visually assed for overt behavioral signs, including biomarkers for 5-HT2A receptor target engagement (i.e. wet dog shakes, back muscle contractions and stereotypic behaviors), 5-HT2C receptor activation (yawning, penile grooming), and 5-HT1A behaviors (forepaw treading, hindlimb abduction). Additional behavioral and somatic signs characteristic of 5-HT syndrome (i.e. tremor, salivation, flat body posture) also were measured. Core body temperature change was determined at 0 hr (pre-dose), 1 hr, and 2 hr. Simultaneously, the spontaneous locomotor activity of the rats was measured using automated Med Associates activity test chambers. Activity data collected included total distance travelled, rearing counts, and ambulatory episodes. LMA was measured for a total of 2 hours (i.e. the first hour to include visual assessments of behavioral signs, and the second hour the animals will not be assessed for behavioral signs) with data collected into 10 minute time bins. The tracking arena measured 17″ W×17″ L×12″ H, sensor bars were secured 1″ above the floor to track distance travelled, and a second set of sensor bars were placed ˜5″ above the floor to measure vertical movement and rearing activity. The parameters set on the tracking software were as follows: resolution −50 ms, box size −4 beams, resting delay −500 ms, and ambulatory trigger −3.
Table 14 outlines receptor activity and related behavioral and/or physiological measures.

[1] = 5-HT1A agonism, 3, 10, 30 mg/kg IP
[2] = 5-HT2C agonism, 3, 10, 30 mg/kg IP
[3] = excess 5-HT agonism (5-HT syndrome), 3, 10, 30 mg/kg IP

## COc1ccc(OC)c(CCNCc2cc(C)cc(F)c2)c1 [Compound 2-2, 2-(2,5-dimethoxyphenyl)-N-(3-fluoro-5-methylbenzyl)ethan-1-amine]
Male Sprague Dawley rats; 10 mg/kg IP after M100907 0.5 mg/kg IP (30 min before)
  generalization to the psilocybin cue: 2+1%
Male Sprague Dawley rats; 10 mg/kg IP after SB242084 0.5 mg/kg IP (30 min before)
  generalization to the psilocybin cue: 71+14%
Male Sprague Dawley rats; 10 mg/kg IP following antagonist pretreatment
  response rate: no significant effect
Male Sprague Dawley rats; 10 mg/kg IP, 10 min prior to test (Veh pretreatment)
  generalization to the psilocybin cue: 91+8%
Male Sprague Dawley rats; 10 mg/kg IP, pretreatment time 4 h
  generalization to the psilocybin cue: ~35%
Male Sprague Dawley rats; 10 mg/kg IP, pretreatment times of 10 and 30 min
  generalization to the psilocybin cue: ~80%
Male Sprague Dawley rats; 10 mg/kg IP, across pretreatment times 10 min-8 h
  response rate: minor effect
Male Sprague Dawley rats; 10 mg/kg IP, only at 10 min post dose
  rate of responding: modestly suppressed
Male Sprague Dawley rats; dose range 1-10 mg/kg IP
  response rate: minor effects
Male WKY rats
  NREM sleep latency: no significant effect
  body temperature: transiently reduced
  locomotion: did not affect
Male Sprague-Dawley rats; 30 mg/kg IP
  distance travelled during the first 20 minutes of the 2 hour test: decreased
  total ambulatory episodes: decreased
  total rearing counts: decreased
Male Sprague-Dawley rats; 3, 10, 30 mg/kg IP, 2 hour test
  total distance travelled: did not affect
Male Sprague-Dawley rats; 5-HT1A agonism / excess 5-HT agonism, 30 mg/kg IP (highest dose tested), 30 mg/kg
  Flat body posture: induced flat body posture; also recorded: Significant Increase
Male Sprague-Dawley rats; [1]
  Forepaw treading (FPT): No effect
  Hindlimb abduction (HLA): No effect
Male Sprague-Dawley rats; [2]
  Penile grooming (PG): No effect
  Yawning: No effect
Male Sprague-Dawley rats; [3]
  Salivation: No effect
  Tremor: No effect
Male Sprague-Dawley rats; mixed/non-selective, 30 mg/kg IP
  Locomotor activity: Significant decrease
